Earlier results, collected in publication PMC5402304, “Oxoaporphine Metal Complexes (Co^II, Ni^II, Zn^II) with High Antitumor Activity by Inducing Mitochondria-Mediated Apoptosis and S-phase Arrest in HepG2” (Scientific Reports, 2017).

Tests used:
Conditions in all cases: read-out: Antitumor activity: IC50; cited from earlier work
[1] = test system: NCI-H460
[2] = test system: Hep-G2
[3] = test system: SK-OV-3; parameters: method as in PMID 27898051

Structure (SMILES) | IC50 [1] [µM] | IC50 [2] [µM] | IC50 [3] [µM]
Nc1cccc2c1C(=O)c1cccc3ccnc-2c13.[Cl][Ni][Cl] [Complex C00005] | 15.6 | 18.2 | 15
Nc1c(Cl)ccc2c1-c1nccc3cccc(c13)C2=O.[Cl][Ni][Cl] [Complex C00006] | 35.2 | 28.8 | 29.1
